From patent US20060069132A1, “Azolecarboxamide herbicides” (priority 2004, published 2006)

Assays:
large crabgrass [1] = assay: Test A pre-/postemergence herbicide test; type: in vivo, Digitaria sanguinalis
How it was run: (§1)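 Sandy loam soil given preemergence directed spray; plants at 2 to 10 cm, one- to two-leaf stage, sprayed to runoff postemergence, compounds in non-phytotoxic solvent with surfactant. Injury rated visually versus untreated controls after about ten greenhouse days, 0 (no effect) to 100 (complete control); dash means not tested.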

blackgrass = assay: Test B postemergence herbicide test; type: in vivo, Alopecurus myosuroides; conditions: scale 0 (no effect) to 100 (complete control)
How it was run: (§2)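 Paddy species grown to the 2-leaf stage under flooding; blackgrass sprayed postemergence at 2–18 cm (1- to 4-leaf stage). Plants kept in a greenhouse for 13 to 15 days, then visually rated against controls on 0 (no effect) to 100 (complete control).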

giant foxtail [2] = assay: Test B pre-/postemergence herbicide test; type: in vivo, Setaria faberi
How it was run: (§3)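 Formulation: non-phytotoxic solvent mix with surfactant. Timing: preemergence on seed and postemergence on 2–18 cm plants, applied concurrently. Readout after 13–15 d greenhouse: visual 0–100 control rating against controls.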

wheat = assay: Test B postemergence herbicide test; type: in vivo, Triticum aestivum; set-up: key to Wheat plant response rating: 0 = no effect, 100 = complete control; conditions: scale 0 (no effect) to 100 (complete control)
How it was run: (§4)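 Scale 0–100: zero equals no visible effect, 100 complete control, judged by eye relative to controls. Timing: 13 to 15 days in greenhouse post-treatment. Growth stage at spraying: two leaves (paddy) or one to four leaves, 2–18 cm (postemergence).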

lambsquarters = assay: Test B pre-/postemergence herbicide test; type: in vivo, Chenopodium album
How it was run: as §3

rice [3] = assay: Test B pre-/postemergence herbicide test; type: in vivo, Oryza sativa; conditions: preemergence, 125 g ai/ha; 0 to 100 scale, 0 is no effect, 100 is complete control
How it was run: as §3

barnyardgrass [4] = assay: Test A pre-/postemergence herbicide test; type: in vivo, Echinochloa crus-galli
How it was run: as §1

large crabgrass [5] = assay: Test B pre-/postemergence herbicide test; type: in vivo, Digitaria sanguinalis
How it was run: as §3

rice [6] = assay: Test B flooded paddy test; type: in vivo, Oryza sativa; conditions: 1000 g ai/ha, visual rating, scale 0 to 100 (0 no effect, 100 complete control), 13 to 15 days
How it was run: as §4

corn = assay: Test B pre-/postemergence herbicide test; type: in vivo, Zea mays
How it was run: as §3

pigweed = assay: Test B pre-/postemergence herbicide test; type: in vivo, Amaranthus retroflexus
How it was run: as §3

[7] = system: small flower umbrella sedge; assay: Test B flooded paddy test; type: in vivo, Cyperus difformis; conditions: 1000 g ai/ha, visual rating, scale 0 to 100 (0 no effect, 100 complete control), 13 to 15 days
How it was run: as §2

velvetleaf [8] = assay: Test A pre-/postemergence herbicide test; type: in vivo, Abutilon theophrasti
How it was run: as §1

velvetleaf [9] = assay: Test B pre-/postemergence herbicide test; type: in vivo, Abutilon theophrasti
How it was run: as §3

ducksalad = assay: Test B flooded paddy test; type: in vivo, Heteranthera limosa; conditions: 1000 g ai/ha, visual rating, scale 0 to 100 (0 no effect, 100 complete control), 13 to 15 days
How it was run: as §2

redroot pigweed = assay: Test A pre-/postemergence herbicide test; type: in vivo, Amaranthus retroflexus
How it was run: as §1

Surinam grass = assay: Test B pre-/postemergence herbicide test; type: in vivo, Urochloa decumbens
How it was run: as §3

morningglory [10] = assay: Test B pre-/postemergence herbicide test; type: in vivo, Ipomoea coccinea
How it was run: (§5)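 Test chemicals in a non-phytotoxic solvent mixture with surfactant were applied preemergence to seeded species and postemergence to plants 2-18 cm tall (1- to 4-leaf stage); rice and barnyardgrass were also tested in a flooded paddy at the 2-leaf stage. Visual rating versus controls after 13-15 days in greenhouse, scale 0 (no effect) to 100 (complete control).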

cocklebur = assay: Test B pre-/postemergence herbicide test; type: in vivo, Xanthium strumarium
How it was run: as §5

wild oat = assay: Test B postemergence herbicide test; type: in vivo, Avena fatua; conditions: scale 0 (no effect) to 100 (complete control)
How it was run: as §4

barnyardgrass [11] = assay: Test B pre-/postemergence herbicide test; type: in vivo, Echinochloa crus-galli
How it was run: as §5

morningglory [12] = assay: Test A pre-/postemergence herbicide test; type: in vivo, Ipomoea spp.
How it was run: as §1

barnyardgrass [13] = assay: Test B flooded paddy test; type: in vivo, Echinochloa crus-galli; conditions: 1000 g ai/ha, visual rating, scale 0 to 100 (0 no effect, 100 complete control), 13 to 15 days
How it was run: as §2

giant foxtail [14] = assay: Test A pre-/postemergence herbicide test; type: in vivo, Setaria faberi
How it was run: as §1

[15] = Postemergence, 500 g ai/ha, 0 to 100 scale, 0 no effect, 100 complete control
[16] = Postemergence, 2000 g ai/ha, 0 to 100 scale, 0 no effect, 100 complete control
[17] = Preemergence, 500 g ai/ha, visual rating, 0 to 100 scale (0 no effect, 100 complete control)
[18] = Preemergence, 2000 g ai/ha, 0 to 100 scale, 0 no effect, 100 complete control
[19] = Postemergence, 500 g ai/ha, visual rating after 13 to 15 days
[20] = postemergence, 125 g ai/ha, visual rating
[21] = Postemergence, 500 g ai/ha, visual rating after 13 to 15 days, scale 0 (no effect) to 100 (complete control)
[22] = Preemergence, 500 g ai/ha, scale 0 to 100
[23] = postemergence, 125 g ai/ha, visual rating, scale 0 (no effect) to 100 (complete control)
[24] = preemergence, 125 g ai/ha, 0 to 100 scale, 0 is no effect, 100 is complete control

## CCOC(=O)c1cc(NC(=O)c2cc(C(C)(C)C)nn2CC)ccc1F [Compound 89]
Large crabgrass [1]; [15]
  Crabgrass, Large plant response rating: 20
Large crabgrass [1]; [16]
  Plant response rating, Crabgrass, Large: 25
Large crabgrass [1]; [17]
  Crabgrass, Large plant response rating: 0
Large crabgrass [1]; [18]
  Crabgrass, Large plant response rating: 0
blackgrass; [19]
  Plant response rating, Blackgrass: 10
blackgrass; [20]
  Blackgrass plant response rating: 0
Giant foxtail [2]; [21]
  Plant response rating, Foxtail, Giant: 20
Giant foxtail [2]; [22]
  Foxtail, Giant plant response rating: 0
Giant foxtail [2]; [23]
  Foxtail, Giant plant response rating: 20
Giant foxtail [2]; [24]
  Plant response rating, Foxtail, Giant: 0
wheat; [19]
  Plant response rating, Wheat: 20
wheat; [20]
  Wheat plant response rating: 20
lambsquarters; [21]
  Plant response rating, Lambsquarters: 60
lambsquarters; [23]
  Lambsquarters plant response rating: 30
lambsquarters; [24]
  Plant response rating, Lambsquarters: 0
Rice [3]
  Plant response rating, Rice: 0
Barnyardgrass [4]; [15]
  Barnyardgrass plant response rating: 20
Barnyardgrass [4]; [16]
  Plant response rating, Barnyardgrass: 20
Barnyardgrass [4]; [17]
  Barnyardgrass plant response rating: 0
Barnyardgrass [4]; [18]
  Barnyardgrass plant response rating: 0
Large crabgrass [5]; [21]
  Plant response rating, Crabgrass, Large: 20
Large crabgrass [5]; [22]
  Crabgrass, Large plant response rating: 80
Large crabgrass [5]; [23]
  Crabgrass, Large plant response rating: 10
Large crabgrass [5]; [24]
  Plant response rating, Crabgrass, Large: 0
Rice [6]
  Rice plant response rating: 10
corn; [21]
  Plant response rating, Corn: 20
corn; [22]
  Corn plant response rating: 0
corn; [23]
  Corn plant response rating: 10
corn; [24]
  Plant response rating, Corn: 0
pigweed; [21]
  Plant response rating, Pigweed: 40
pigweed; [23]
  Pigweed plant response rating: 20
pigweed; [24]
  Plant response rating, Pigweed: 0
[7]
  Sedge, Umbrella plant response rating: 60
Velvetleaf [8]; [15]
  Velvetleaf plant response rating: 20
Velvetleaf [8]; [16]
  Plant response rating, Velvetleaf: 20
Velvetleaf [8]; [17]
  Velvetleaf plant response rating: 0
Velvetleaf [8]; Preemergence, 2000 g ai/ha, visual rating, 0 to 100 scale (0 no effect, 100 complete control)
  Velvetleaf plant response rating: 10
Velvetleaf [9]; [21]
  Plant response rating, Velvetleaf: 50
Velvetleaf [9]; [23]
  Velvetleaf plant response rating: 30
Velvetleaf [9]; [24]
  Plant response rating, Velvetleaf: 0
ducksalad
  Ducksalad plant response rating: 0
Redroot pigweed; [15]
  Pigweed plant response rating: 20
Redroot pigweed; [16]
  Plant response rating, Pigweed: 30
Redroot pigweed; [17]
  Pigweed plant response rating: 0
Redroot pigweed; [18]
  Pigweed plant response rating: 10
Surinam grass; [21]
  Plant response rating, Surinam Grass: 20
Surinam grass; [23]
  Surinam Grass plant response rating: 10
Surinam grass; [24]
  Plant response rating, Surinam Grass: 0
Morningglory [10]; [21]
  Plant response rating, Morningglory: 50
Morningglory [10]; [23]
  Morningglory plant response rating: 20
Morningglory [10]; [24]
  Plant response rating, Morningglory: 0
cocklebur; [21]
  Plant response rating, Cocklebur: 90
cocklebur; [22]
  Cocklebur plant response rating: 0
cocklebur; [23]
  Cocklebur plant response rating: 70
cocklebur; [24]
  Plant response rating, Cocklebur: 0
Wild oat; [19]
  Plant response rating, Oat, Wild: 30
Wild oat; [20]
  Oat, Wild plant response rating: 20
Barnyardgrass [11]; [21]
  Plant response rating, Barnyardgrass: 20
Barnyardgrass [11]; [22]
  Barnyardgrass plant response rating: 0
Barnyardgrass [11]; [23]
  Barnyardgrass plant response rating: 10
Barnyardgrass [11]; [24]
  Plant response rating, Barnyardgrass: 0
Morningglory [12]; [15]
  Morningglory plant response rating: 20
Morningglory [12]; [16]
  Plant response rating, Morningglory: 15
Morningglory [12]; [17]
  Morningglory plant response rating: 0
Morningglory [12]; [18]
  Morningglory plant response rating: 10
Barnyardgrass [13]
  Barnyardgrass plant response rating: 10
Giant foxtail [14]; [15]
  Foxtail, Giant plant response rating: 20
Giant foxtail [14]; [16]
  Plant response rating, Foxtail, Giant: 20
Giant foxtail [14]; [17]
  Foxtail, Giant plant response rating: 0
Giant foxtail [14]; [18]
  Foxtail, Giant plant response rating: 0
